“And” between values parts separate entries of the source, which are not always exact repeats. Equal values may be shown once.
Assays:
NLPPp [1] = target: T1, NLPPp (Phytophthora nicotianae, UniProt Q9AT28); assay: Surface plasmon resonance binding to immobilized NLPPp; set-up: species or system Phytophthora parasitica; conditions: for Kd: SPR, steady-state affinity model, 50 mM MES, 150 mM NaCl, 5% DMSO, pH 5.8
T1 construct: made in house; host or cells: Pichia pastoris
T1 sequence (Q9AT28 20-237): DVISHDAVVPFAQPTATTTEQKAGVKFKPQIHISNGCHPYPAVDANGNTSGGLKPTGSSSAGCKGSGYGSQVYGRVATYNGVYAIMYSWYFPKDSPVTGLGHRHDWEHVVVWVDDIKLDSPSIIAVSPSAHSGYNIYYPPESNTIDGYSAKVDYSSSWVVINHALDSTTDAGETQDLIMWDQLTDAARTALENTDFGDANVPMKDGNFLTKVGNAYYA

NLPPp [2] = target: T1, NLPPp; assay: Tobacco leaf infiltration assay, NLPPp-induced necrosis; type: in vivo, Phytophthora parasitica; conditions: 400 nM NLPPp with different concentrations of compound, tobacco leaves, 24 h
BcNEP1 = system: BcNEP1; set-up: method as in doi:10.1016/j.pmpp.2010.06.003; conditions: cited from earlier work
NLPPp [3] = target: T1, NLPPp; set-up: method as in doi:10.1016/j.pmpp.2010.06.003; conditions: cited from earlier work

| Compound | Kd (NLPPp [1]) | effect on NLPPp-induced necrosis (NLPPp [2]) | effect on necrosis-inducing action of BcNEP1 (BcNEP1) | effect against NLPPp (NLPPp [3]) | SPR binding to NLPPp (in words) (NLPPp [1]) |
| --- | --- | --- | --- | --- | --- |
| COc1ccc(Nc2ccccc2C(=O)O)cc1 [6G7, 2-((4-methoxyphenyl)amino)benzoic acid] | 71.9 ± 19.1 µM | inhibited |  |  |  |
| Cc1oc([C@@H](O)[C@H](O)[C@H](O)CO)cc1C(=O)O [6E11, 2-methyl-5-((1S,2R,3R)-1,2,3,4-tetrahydroxybutyl)furan-3-carboxylic acid, reference compound] |  | did not affect NLPPp cytotoxicity |  |  |  |
| O=C(Cc1c[nH]c2ccccc12)Nc1ccccc1CCOC(=O)Cc1c[nH]c2ccccc12 [7C8, 2-(2-(1H-indol-3-yl)acetamido)phenethyl 2-(1H-indol-3-yl)acetate] | 40.5 µM and ~50 µM | inhibited |  |  |  |
| O=C(N/N=C/c1ccc(O)c(O)c1)c1cc2ccccc2cc1O [dynasore] |  |  | reduced | ineffective |  |
| Cc1ccc2occ(C3N[C@H](C(=O)O)CS3)c(=O)c2c1 (stereo partly drawn) [6C3, (4R)-2-(6-methyl-4-oxo-4H-chromen-3-yl)thiazolidine-4-carboxylic acid] |  | inhibited |  |  | nonspecific binding |

From publication PMC8078777 (PLoS Pathogens, 2021)
